Measured values reported in patent publication US20260103465A1, “GLYCOGEN SYNTHASE KINASE 3 INHIBITORS AND USES THEREOF” (The Broad Institute, Inc., priority 2023, published 2026).
Read-outs that look alike come from different tables or passages of the source.

Assays:
[1] = target: T1, GSK3a (GST-full length GSK3a) (Homo sapiens, UniProt P49840); experiment: GSK3a TR-FRET kinase inhibition assay; format: biochemical
T1 construct: GST-full length GSK3a [SignalChem G08-10G]; purchased SignalChem G08-10G
How it was run: (§1)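 IC50 derived from normalized 665/615 TR-FRET signal (Tb anti-pSer641 antibody, streptavidin-d2), read after EDTA stop. Reaction: 1 nM GST-full-length enzyme, 30 min compound pre-incubation, 100 min at ambient temperature in Tris pH 7.5 with 1% DMSO, 200 nM biotinylated primed glycogen synthase peptide, ATP 2 μM to 1 mM.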

[2] = target: T2, GSK3b (GST-full length GSK3b) (Homo sapiens, UniProt P49841); experiment: GSK3b TR-FRET kinase inhibition assay; format: biochemical
T2 construct: GST-full length GSK3b: [SignalChem G08-9G]; purchased SignalChem G08-9G
How it was run: as §1

[3] = Human liver microsomal stability; format: in vitro ADME; settings: human liver microsomes
Description: Stability of compound (5 μL of a 10 mM DMSO solution) in human liver microsomes was tested in duplicate by incubating compound at 1 μM for 60 minutes at 37° C. Compound level at 60 minutes was compared to level at 0 minutes, and percent remaining was calculated. Order by selecting Microsomal Stability in Prometheus, checking boxes for desired species. Assay Controls: microsomes with NADPH without compound-matrix interference. Microsomes plus compound without NADPH—non-enzymatic instability.

[4] = system: MDR1-MDCK cell monolayers; experiment: MDR1/MDCK permeability assay; format: in vitro ADME; settings: for MDCK Permeability (MDR1-MDCK); Mean; Papp(A-B) (10^−6 cm/s): A to B; for MDCK Permeability (MDR1-MDCK); Mean; Papp(B-A) (10^−6 cm/s): B to A; for MDCK Permeability (MDR1-MDCK); Mean; P. Ratio(B-A/A-B) Efflux Ratio / MIDCK Permeability (MDR1-MDCK); Mean; P. Ratio(B-A/A-B) Efflux Ratio: Papp B-A/A-B
Excerpt: The MDR1/MDCK assay is run at WuXi and Absorption Systems. This assay is used to determine the blood-brain barrier (BBB) penetration potential of a test compound using MDR1-MDCK cell monolayers. Catalog number EA203.
• The percent recovery of the test compound from the Transwell® wells containing MDR1-MDCK cell monolayers • The apparent permeability (Papp) in both directions • The efflux ratio (Papp B to A)/(Papp A to B) • The blood-brain barrier penetration potential classification: • High when • Papp A to B≥3.0×10^−6 cm/s, and efflux<3.0 • Moderate when • Papp A to B≥3.0×10^−6 cm/s, and 10>efflux≥3.0 • Low when either • Papp A to B≥3.0×10^−6 cm/s, and […], or when • Papp A to B<[…].
• Test compound at 5 μM in HBSSg with maximum DMSO concentration not greater than 1%.
• Confluent monolayers of MDR1-MDCK cells, 7 to 11 days old.
• Receiver well with 1% BSA in modified Hanks buffer (HBSSg) • Apical and basolateral side at pH 7.4 • Dose two monolayers in each direction (N=2) • Dose apical side for (A to B) assessment • Dose basolateral side for (B to A) assessment • Sample both apical and basolateral sides at 120 minutes • Determine the concentrations of test compound using a generic LC-MS/MS method with a minimum 4 point calibration curve.
• The quality of the cell monolayer batch is verified using control compounds before monolayers are released for use • The quality of each monolayer used in the assay is verified by a TEER measurement and by calculating the Papp for a control compound.

[5] = 4 μM ATP, read-out: GSK3α TR-FRET 4 μM ATP GMean IC50
[6] = 2 μM ATP, read-out: GSK3β TR-FRET 2 μM ATP GMean IC50
[7] = 10 μM ATP, read-out: GSK3a 10 μM ATP Average IC50
[8] = 100 μM ATP, read-out: GSK3a 100 μM ATP Average IC50
[9] = 1 mM ATP, Table 3, read-out: GSK3a TR-FRET 1 mM ATP Average IC50
[10] = 10 μM ATP, read-out: GSK3b 10 μM ATP Average IC50
[11] = 100 μM ATP, read-out: GSK3b 100 μM ATP Average IC50
[12] = 1 mM ATP, Table 3, read-out: GSK3b TR-FRET 1 mM ATP Average IC50
[13] = 1 mM ATP, Table 4, read-out: GSK3α TR-FRET 1 mM ATP GMean IC50
[14] = 1 mM ATP, Table 4, read-out: GSK3β TR-FRET 1 mM ATP GMean IC50

T2 sequence (P49841 whole entry): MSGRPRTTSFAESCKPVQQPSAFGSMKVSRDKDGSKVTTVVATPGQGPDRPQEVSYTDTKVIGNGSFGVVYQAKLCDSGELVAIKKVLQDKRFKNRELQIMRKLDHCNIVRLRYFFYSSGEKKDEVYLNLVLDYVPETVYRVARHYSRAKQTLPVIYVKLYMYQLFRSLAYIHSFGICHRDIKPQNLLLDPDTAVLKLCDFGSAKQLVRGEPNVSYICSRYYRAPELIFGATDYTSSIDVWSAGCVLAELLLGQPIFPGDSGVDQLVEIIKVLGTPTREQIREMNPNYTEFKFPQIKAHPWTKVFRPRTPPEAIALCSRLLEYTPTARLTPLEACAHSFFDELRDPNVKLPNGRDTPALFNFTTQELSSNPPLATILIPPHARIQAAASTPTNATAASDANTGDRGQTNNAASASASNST
T1 sequence (P49840 whole entry): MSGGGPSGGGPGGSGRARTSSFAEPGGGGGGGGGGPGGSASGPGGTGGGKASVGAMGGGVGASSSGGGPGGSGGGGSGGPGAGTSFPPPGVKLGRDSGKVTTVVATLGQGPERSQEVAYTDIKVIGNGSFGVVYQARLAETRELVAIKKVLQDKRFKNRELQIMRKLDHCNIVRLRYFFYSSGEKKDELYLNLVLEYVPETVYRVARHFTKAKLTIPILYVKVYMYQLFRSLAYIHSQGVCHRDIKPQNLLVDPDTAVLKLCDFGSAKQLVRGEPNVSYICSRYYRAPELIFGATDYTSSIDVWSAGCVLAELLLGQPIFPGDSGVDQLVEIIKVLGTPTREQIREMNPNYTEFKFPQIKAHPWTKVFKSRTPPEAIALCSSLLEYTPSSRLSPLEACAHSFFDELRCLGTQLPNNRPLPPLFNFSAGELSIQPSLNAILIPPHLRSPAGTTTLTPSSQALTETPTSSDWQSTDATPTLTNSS

| Compound | IC50 [1, 5] [nM] | IC50 [2, 6] [nM] | Microsome Stability (Human) (DMPK_BIIB); Mean; in vitro t1/2 ([3]; Table 4) [min] | MDCK Permeability (MDR1-MDCK); Mean; Papp(A-B) (10^−6 cm/s) ([4]; Table 4) | MDCK Permeability (MDR1-MDCK); Mean; Papp(B-A) (10^−6 cm/s) ([4]; Table 4) | MDCK Permeability (MDR1-MDCK); Mean; P. Ratio(B-A/A-B) Efflux Ratio ([4]; Table 4) | IC50 [1, 7] [nM] | IC50 [1, 8] [nM] | IC50 [1, 9] [nM] | IC50 [2, 10] [nM] | IC50 [2, 11] [nM] | IC50 [2, 12] [nM] | Microsome Stability (Human) (DMPK_BIIB); Mean; in vitro t1/2 ([3]; Table 3) [min] | MDCK Permeability (MDR1-MDCK); Mean; Papp(A-B) (10^−6 cm/s) ([4]; Table 3) | MDCK Permeability (MDR1-MDCK); Mean; Papp(B-A) (10^−6 cm/s) ([4]; Table 3) | MIDCK Permeability (MDR1-MDCK); Mean; P. Ratio(B-A/A-B) Efflux Ratio ([4]; Table 3) | IC50 [1, 13] [nM] | IC50 [2, 14] [nM] |
| --- | --- | --- | --- | --- | --- | --- | --- | --- | --- | --- | --- | --- | --- | --- | --- | --- | --- | --- |
| CCC1(c2ccccc2)C2=C(CC(C)(C)CC2=O)Nc2ncccc21 (single isomer, unassigned) [102 B] | > 5000 | > 5000 | 1.2 | 6.7 10^−6 cm/s | 29 10^−6 cm/s | 4.3 |  |  |  |  |  |  |  |  |  |  |  |  |
| CCC1(c2cccc(O)c2)C2=C(CC(C)(C)CC2=O)Nc2ncc(F)cc21 (single isomer, unassigned) [Compound 1010A] | > 5000 | > 5000 | 6.1 | 0.60 10^−6 cm/s | 28 10^−6 cm/s | 51 |  |  |  |  |  |  |  |  |  |  |  |  |
| CCC1(c2cccc(-c3c(C)nn(C)c3C)c2)C2=C(CC(C)(C)CC2=O)Nc2ncccc21 (single isomer, unassigned) [Compound 150A] | 1000 to 5000 | > 5000 |  |  |  |  | ≤ 100 | ≤ 100 | 100 to 1000 | ≤ 100 | ≤ 100 | 100 to 1000 | 1.9 | 20 10^−6 cm/s | 17 10^−6 cm/s | 0.93 |  |  |
| CCC1(c2cccc(-c3cncn3C(C)C)c2)C2=C(CC(C)(C)CC2=O)Nc2ncc(F)cc21 (single isomer, unassigned) [Compound 1038A] | ≤ 100 | ≤ 100 | 16 | 0.90 10^−6 cm/s | 41 10^−6 cm/s | 43 |  |  |  |  |  |  |  |  |  |  |  |  |
| CCC1(c2cccc(-c3ccncc3)c2)C2=C(CC(C)(C)CC2=O)Nc2ncccc21 (single isomer, unassigned) [Compound 1017A] | ≤ 100 | 100 to 1000 | 6.2 | 6.9 10^−6 cm/s | 32 10^−6 cm/s | 4.6 |  |  |  |  |  |  |  |  |  |  |  |  |
| CCC1(c2cccc(-c3cc(C)nn3C)c2)C2=C(CC(C)(C)CC2=O)Nc2ncccc21 (single isomer, unassigned) [Compound 1024B] | ≤ 100 | 100 to 1000 | 4.3 | 2.8 10^−6 cm/s | 31 10^−6 cm/s | 11 |  |  |  |  |  |  |  |  |  |  |  |  |
| CCC1(c2ccccc2)C2=C(CC(C)(C)CC2=O)Nc2ncccc21 (single isomer, unassigned) [102 A] | ≤ 100 | ≤ 100 | 9.1 | 8.7 10^−6 cm/s | 26 10^−6 cm/s | 2.9 |  |  |  |  |  |  |  |  |  |  | 1000 to 5000 | 5000 to 20000 |
| CCC1(c2ccccc2)C2=C(CC(C)(C)CC2=O)Nc2ncc(F)cc21 (single isomer, unassigned) [Compound 114A] |  |  | 37 | 10 10^−6 cm/s | 20 10^−6 cm/s | 2.0 | ≤ 100 | ≤ 100 | 100 to 1000 | ≤ 100 | ≤ 100 | 1000 to 5000 | 49 | 23 10^−6 cm/s | 16 10^−6 cm/s | 0.68 |  |  |
| CCC1(c2ccccc2)C2=C(CC(C)(C)NC2=O)Nc2ncc(F)cc21 (single isomer, unassigned) [Compound 1007B] | ≤ 100 | ≤ 100 | 211 | 7.8 10^−6 cm/s | 45 10^−6 cm/s | 5.7 |  |  |  |  |  |  |  |  |  |  | 1000 to 5000 | 5000 to 20000 |
| CCC1(c2cccc(-c3cccnc3)c2)C2=C(CC(C)(C)CC2=O)Nc2ncccc21 (single isomer, unassigned) [Compound 1015A] | ≤ 100 | ≤ 100 | 2.8 | 4.7 10^−6 cm/s | 44 10^−6 cm/s | 9.5 |  |  |  |  |  |  |  |  |  |  |  |  |
| CC1(C)CC(=O)C2=C(C1)Nc1ncc(F)cc1C2(C)c1ccccc1 (single isomer, unassigned) [Compound 107B] |  |  |  |  |  |  |  |  | 1000 to 5000 |  |  | 1000 to 5000 | 94 | 30 10^−6 cm/s | 18 10^−6 cm/s | 0.61 |  |  |
| CCC1(c2cccc(C(C)C)c2)C2=C(CC(C)(C)CC2=O)Nc2ncccc21 (single isomer, unassigned) [Compound 1011B] | ≤ 100 | ≤ 100 | 3.8 | 15 10^−6 cm/s | 28 10^−6 cm/s | 1.9 |  |  |  |  |  |  |  |  |  |  |  |  |
| CCC1(c2cccc(-c3ccnc4c3CCCC4)c2)C2=C(CC(C)(C)CC2=O)Nc2ncc(F)cc21 (single isomer, unassigned) [Compound 165B] | ≤ 100 | ≤ 100 | 4.7 | 4.4 10^−6 cm/s | 24 10^−6 cm/s | 5.5 |  |  |  |  |  |  |  |  |  |  | 100 to 1000 | 100 to 1000 |
| CCC1(c2cccc(-c3ccncc3C)c2)C2=C(CC(C)(C)CC2=O)Nc2ncc(F)cc21 (single isomer, unassigned) [Compound 1031B] | ≤ 100 | ≤ 100 | 19 | 6.2 10^−6 cm/s | 22 10^−6 cm/s | 3.6 |  |  |  |  |  |  |  |  |  |  |  |  |
| CCC1(c2ccccc2)C2=C(CC3(CCC3)CC2=O)Nc2ncc(F)cc21 (single isomer, unassigned) [Compound 1008B] | 1000 to 5000 | 1000 to 5000 | 1.6 | 21 10^−6 cm/s | 31 10^−6 cm/s | 1.5 |  |  |  |  |  |  |  |  |  |  |  |  |
| CCC1(c2cccc(O)c2)C2=C(CC(C)(C)CC2=O)Nc2ncc(F)cc21 (single isomer, unassigned) [Compound 1010B] | ≤ 100 | ≤ 100 | 11 | 0.80 10^−6 cm/s | 39 10^−6 cm/s | 48 |  |  |  |  |  |  |  |  |  |  |  |  |
